US9994555B2, “Chromenone inhibitors of monocarboxylate transporters” (THE SCRIPPS RESEARCH INSTITUTE, priority 2015, dated 2018)

system: Raji (Burkitt's) lymphoma cells; assay: MTT assay for 4-day viability of Raji (Burkitt's) lymphoma cells; assay type: cell-based; settings: Homo sapiens, 96 h, Raji (Burkitt's) lymphoma cells highly expressing MCT1, estimated EC50 given as bin, read-out: approximate potency (EC50)
From the text: Specific Examples of compounds of the invention, with estimated EC50 values determined using an MTT assay for 4-day viability of Raji (Burkitt's) lymphoma cells, a cell line known to highly express MCT1 and to be sensitive to small molecule MCT inhibitors,^4 are shown in Table 8. Assay protocols follow those described in the literature.^4 Other assays that are not described here but that are standard in the field, such as an assay for competitive inhibition of transport of radiolabeled lactic acid, an MCT substrate, may also be useful in establishing mechanism of action of these compounds.

SMILES | EC50
Cc1cc(=O)c2c(OCCCO)cc(Oc3ccnc4ccccc34)cc2o1 [Example 1, 5-(3-hydroxypropoxy)-2-methyl-7-(quinolin-4-yloxy)-4H-chromen-4-one] | 1000 to 10000 nM
Cc1cc(=O)c2c(OCCCCO)cc(OCc3cccc4ccccc34)cc2o1 [Example 3, 5-(4-hydroxybutoxy)-2-methyl-7-(naphthalen-1-ylmethoxy)-4H-chromen-4-one] | 1000 to 10000 nM
Cc1cc(=O)c2c(OCC(O)CO)cc(Oc3ccnc4ccccc34)cc2o1 (stereo not shown) [Example 4, 5-(2,3-dihydroxypropoxy)-2-methyl-7-(quinolin-4-yloxy)-4H-chromen-4-one] | ≥ 10000 nM
CC(C)c1cc(=O)c2c(OCCCCO)cc(OCc3cccc4ccccc34)cc2o1 [Example 5, 5-(4-hydroxybutoxy)-2-isopropyl-7-(naphthalen-1-ylmethoxy)-4H-chromen-4-one] | 100 to 1000 nM
CC(C)c1cc(=O)c2c(OCCCO)cc(OCc3ccnc4ccccc34)cc2o1 [Example 6, 5-(3-hydroxypropoxy)-2-isopropyl-7-(quinolin-4-ylmethoxy)-4H-chromen-4-one] | 100 to 1000 nM
CC(C)c1cc(=O)c2c(OCCCO)cc(OCc3cccc4ccccc34)cc2o1 [Example 7, 5-(3-hydroxypropoxy)-2-isopropyl-7-(naphthalen-1-ylmethoxy)-4H-chromen-4-one] | 100 to 1000 nM
CC(C)c1cc(=O)c2c(OCc3ccccc3CO)cc(OCc3ccccn3)cc2o1 [Example 13, 5-((2-(hydroxymethyl)benzyl)oxy)-2-isopropyl-7-(pyridin-2-ylmethoxy)-4H-chromen-4-one] | ≤ 100 nM
CC(C)c1cc(=O)c2c(OCc3ccccc3CO)cc(OCc3cncc(C(F)(F)F)c3)cc2o1 [Example 16, 5-((2-(hydroxymethyl)benzyl)oxy)-2-isopropyl-7-((5-(trifluoromethyl)pyridin-3-yl)methoxy)-4H-chromen-4-one] | ≤ 100 nM

Results, then the compound that gave them:

EC50 | SMILES
1000 to 10000 nM | Cc1cc(=O)c2c(OCCCO)cc(OCc3cccc4ccccc34)cc2o1 [Example 2, 5-(3-hydroxypropoxy)-2-methyl-7-(naphthalen-1-ylmethoxy)-4H-chromen-4-one]
≤ 100 nM | CC(C)c1cc(=O)c2c(OCc3ccccc3CO)cc(OCc3cccc4ccccc34)cc2o1 [Example 8, 5-((2-(hydroxymethyl)benzyl)oxy)-2-isopropyl-7-(naphthalen-1-ylmethoxy)-4H-chromen-4-one]
≤ 100 nM | CC(C)c1cc(=O)c2c(OCc3ccccc3CO)cc(Oc3ccnc4ccccc34)cc2o1 [Example 9, 5-((2-(hydroxymethyl)benzyl)oxy)-2-isopropyl-7-(quinolin-4-yloxy)-4H-chromen-4-one]
≤ 100 nM | CC(C)c1cc(=O)c2c(OCc3ccccc3CO)cc(OCc3cccnc3C(F)(F)F)cc2o1 [Example 10, 5-((2-(hydroxymethyl)benzyl)oxy)-2-isopropyl-7-((2-(trifluoromethyl)pyridin-3-yl)methoxy)-4H-chromen-4-one]
≤ 100 nM | CC(C)c1cc(=O)c2c(OCc3ccccc3CO)cc(Oc3ncccc3C(F)(F)F)cc2o1 [Example 11, 5-((2-(hydroxymethyl)benzyl)oxy)-2-isopropyl-7-((3-(trifluoromethyl)pyridin-2-yl)oxy)-4H-chromen-4-one]
≤ 100 nM | CC(C)c1cc(=O)c2c(OCc3ccccc3CO)cc(OCc3cccc(C(F)(F)F)c3)cc2o1 [Example 12, 5-((2-(hydroxymethyl)benzyl)oxy)-2-isopropyl-7-((3-(trifluoromethyl)benzyl)oxy)-4H-chromen-4-one]
≤ 100 nM | CC(C)c1cc(=O)c2c(OCc3ccccc3CO)cc(OCc3cccnc3)cc2o1 [Example 14, 5-((2-(hydroxymethyl)benzyl)oxy)-2-isopropyl-7-(pyridin-3-ylmethoxy)-4H-chromen-4-one]
100 to 1000 nM | CC(C)c1cc(=O)c2c(OCc3ccccc3CO)cc(OCc3ccncc3)cc2o1 [Example 15, 5-((2-(hydroxymethyl)benzyl)oxy)-2-isopropyl-7-(pyridin-4-ylmethoxy)-4H-chromen-4-one]
